# Assay results as given in ChEMBL document CHEMBL3272312, “Proteinase inhibitors. I. Inhibitors of elastase” (J Med Chem, 1977).
# Activity calls are given as the source filed them. No cut-off for these calls is given here. *1 amine or outer side, *2 acyl side, *3 side chain or, on linkers, in order; H or OH if unused. Where a SMILES comes first, the peptide text is derived from it. [ ]: non-standard residue; d: D form. AzaAla = CN(N[*:1])C(=O)[*:2]; Lac = C[C@H](O)C(=O)O
# Assays:
# [1] = target: T1, Pancreatic elastase (Sus scrofa) (UniProt P08419+P00772); assay: Inhibition of porcine pancreatic elastase assessed as Ac-Ala-Ala-Pro-Ala-p-nitroanilide conversion to p-nitroaniline by spectrophotometric analysis; type: protein assay
# Pancreatic elastase = Pancreatic elastase (Sus scrofa, UniProt P08419+P00772); assay: Noncompetitive inhibition of porcine pancreatic elastase using Ac-Ala-Ala-Pro-Ala-p-nitroanilide as substrate by Dixon plot analysis; type: protein assay
# [2] = target: T1, Pancreatic elastase (Sus scrofa); assay: Activity at porcine pancreatic elastase assessed as compound hydrolysis at 1 mg incubated at room temperature after 5 mins by TLC analysis; type: protein assay
# [3] = target: T2, Neutrophil elastase (Homo sapiens) (UniProt P08246)
# T2 sequence (whole entry): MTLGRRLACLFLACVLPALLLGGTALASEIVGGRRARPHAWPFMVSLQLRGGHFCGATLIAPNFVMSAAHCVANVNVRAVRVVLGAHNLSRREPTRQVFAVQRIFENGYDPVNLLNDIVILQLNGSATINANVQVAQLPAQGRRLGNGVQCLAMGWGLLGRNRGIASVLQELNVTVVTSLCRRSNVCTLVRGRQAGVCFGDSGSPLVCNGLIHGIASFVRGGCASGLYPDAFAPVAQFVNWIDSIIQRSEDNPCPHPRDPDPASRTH
# Description: Inhibition of human granulocyte elastase assessed as Ac-Ala-Ala-Pro-Ala-p-nitroanilide conversion to p-nitroaniline by spectrophotometric analysis
# [4] = target: T1, Pancreatic elastase (Sus scrofa); assay: Activity at porcine pancreatic elastase assessed as compound hydrolysis at 1 mg incubated at room temperature up to 24 hrs by TLC analysis; type: protein assay
# [5] = target: T1, Pancreatic elastase (Sus scrofa); assay: Reversible inhibition of porcine pancreatic elastase assessed as enzyme recovery; type: protein assay
# [6] = target: T1, Pancreatic elastase (Sus scrofa); assay: Reversible inhibition of porcine pancreatic elastase assessed as enzyme recovery by sephadex G-25 rapid passage assay; type: protein assay
ID50 [1] [µg/mL],Compound,also measured
90,CCOC(=O)N(C)NC(=O)[C@@H]1CCCN1C(=O)[C@H](C)NC(=O)[C@H](C)NC(=O)OC(C)(C)C,–
0.4,CC(=O)N[C@@H](C)C(=O)N[C@@H](C)C(=O)N1CCC[C@H]1C(=O)NN(C)C(=O)O[C@@H](C)C(=O)Nc1ccccc1,Ki (Pancreatic elastase): 4.5 ×10⁻⁷ M
167,CCOC(=O)[C@H](C)OC(=O)[C@H](C)NC(=O)[C@@H]1CCCN1C(=O)[C@H](C)NC(=O)[C@H](C)NC(C)=O (Ac-AAPA[Lac]-OEt),Activity [2]: Active
1.5,CCOC(=O)[C@H](C)OC(=O)[C@H](C)OC(=O)N(C)NC(=O)[C@@H]1CCCN1C(=O)[C@H](C)NC(=O)[C@@H]1CCCN1C(C)=O,–
15,CCOC(=O)[C@H](C)OC(=O)N(C)NC(=O)[C@H](CC(C)C)NC(=O)[C@H](C)NC(=O)[C@@H]1CCCN1C(C)=O,–
6,CCOC(=O)[C@H](C)OC(=O)N(C)NC(=O)[C@@H]1CCCN1C(=O)[C@H](C)NC(=O)[C@@H]1CCCN1C(C)=O,–
–,CCOC(=O)NNC(=O)[C@@H]1CCCN1C(=O)[C@H](C)NC(=O)[C@@H]1CCCN1C(C)=O,inhibition [1]: inactive
2,CC(=O)N[C@@H](C)C(=O)N[C@@H](C)C(=O)N1CCC[C@H]1C(=O)NN(C)C(=O)O[C@@H](C)C(=O)N(C)N,ID50 [3]: 50 µg/mL
0.3,CC(=O)N1CCC[C@H]1C(=O)N[C@@H](C)C(=O)N1CCC[C@H]1C(=O)NN(C)C(=O)OC(C)C(N)=O (mixture of isomers),Activity [4]: inactive; inhibition [5]: inactive; inhibition [6]: Active; Ki (Pancreatic elastase): 4.5 ×10⁻⁷ M
2,CCOC(=O)[C@H](Cc1ccccc1)NC(=O)[C@H](C)OC(=O)N(C)NC(=O)[C@@H]1CCCN1C(=O)[C@H](C)NC(=O)[C@H](C)NC(C)=O,–
4.5,CCOC(=O)C(C)OC(=O)N(C)NC(=O)[C@@H]1CCCN1C(=O)[C@H](C)NC(=O)[C@@H]1CCCN1C(C)=O (stereo partly drawn),–
167,CCOC(=O)[C@H](C)OC(=O)[C@H](C)OC(=O)[C@@H]1CCCN1C(=O)[C@H](C)NC(=O)[C@@H]1CCCN1C(C)=O (Ac-PAP[Lac][Lac]-OEt),–
1,C[C@H](NC(=O)OCc1ccccc1)C(=O)N[C@@H](C)C(=O)N1CCC[C@H]1C(=O)NN(C)C(=O)Oc1ccc([N+](=O)[O-])cc1,–
60,CCOC(=O)N(C)NC(=O)[C@@H]1CCCN1C(=O)[C@H](C)NC(=O)[C@@H]1CCCN1C(C)=O,–
9,CCOC(=O)[C@H](C)OC(=O)N(C)NC(=O)[C@H](CC(C)C)NC(=O)[C@H](C)NC(=O)[C@H](C)NC(C)=O,–
100,CCOC(=O)[C@H](C)NC(=O)N(C)NC(=O)[C@@H]1CCCN1C(=O)[C@H](C)NC(=O)[C@H](C)NC(C)=O (Ac-AAP[AzaAla]A-OEt),–
–,CCOC(=O)[C@H](C)NC(=O)N(C)NC(=O)[C@@H]1CCCN1C(=O)[C@H](C)NC(=O)[C@@H]1CCCN1C(C)=O (Ac-PAP[AzaAla]A-OEt),inhibition [1]: inactive
110,CC(=O)N[C@@H](C)C(=O)N[C@@H](C)C(=O)N1CCC[C@H]1C(=O)NN(C)C(=O)O[C@@H](C)C(=O)O,–

ID50 [1] [µg/mL],Compound,also measured
0.5,CC(=O)N[C@@H](C)C(=O)N[C@@H](C)C(=O)N1CCC[C@H]1C(=O)NN(C)C(=O)O[C@@H](C)C(=O)OCc1ccccc1,–
–,CCOC(=O)[C@H](C)OC(=O)[C@H](C)NC(=O)[C@@H]1CCCN1C(=O)[C@H](C)NC(=O)[C@@H]1CCCN1C(C)=O (Ac-PAPA[Lac]-OEt),inhibition [1]: inactive; Activity [2]: Active
0.4,CNC(=O)[C@H](C)OC(=O)N(C)NC(=O)[C@@H]1CCCN1C(=O)[C@H](C)NC(=O)[C@H](C)NC(C)=O,Ki (Pancreatic elastase): 6.5 ×10⁻⁷ M
0.4,CC(=O)N[C@@H](C)C(=O)N[C@@H](C)C(=O)N1CCC[C@H]1C(=O)NN(C)C(=O)O[C@@H](C)C(N)=O,Ki (Pancreatic elastase): 5 ×10⁻⁷ M
0.3,CC(=O)N[C@@H](C)C(=O)N[C@@H](C)C(=O)N1CCC[C@H]1C(=O)NN(C)C(=O)O[C@@H](C)C(=O)NCc1ccccc1,Ki (Pancreatic elastase): 8.5 ×10⁻⁷ M
–,CCOC(=O)NNC(=O)[C@@H]1CCCN1C(=O)[C@H](C)NC(=O)[C@H](C)NC(C)=O,inhibition [1]: inactive
–,CCOC(=O)[C@H](C)OC(=O)N(C)NC(C)=O,inhibition [1]: inactive
0.25,CC(=O)N[C@@H](C)C(=O)N[C@@H](C)C(=O)N1CCC[C@H]1C(=O)NN(C)C(=O)O[C@@H](C)C(=O)NN,Ki (Pancreatic elastase): 6.5 ×10⁻⁷ M
30,CCOC(=O)N(C)NC(=O)[C@@H]1CCCN1C(=O)[C@H](C)NC(=O)[C@H](C)NC(=O)OCc1ccccc1,–
–,CCOC(=O)N(C)NC(=O)[C@H](C)NC(C)=O,inhibition [1]: inactive
–,CCOC(=O)NNC(=O)[C@@H]1CCCN1C(=O)[C@H](C)NC(=O)[C@H](C)NC(=O)OC(C)(C)C,inhibition [1]: inactive
1.5,CCOC(=O)[C@H](C)OC(=O)[C@H](C)OC(=O)N(C)NC(=O)[C@@H]1CCCN1C(=O)[C@H](C)NC(=O)[C@H](C)NC(C)=O,–
20,CCOC(=O)N(C)NC(=O)[C@@H]1CCCN1C(=O)[C@H](C)NC(=O)[C@H](C)NC(C)=O,–
1,CCOC(=O)[C@H](C)OC(=O)N(C)NC(=O)[C@@H]1CCCN1C(=O)[C@H](C)NC(=O)[C@H](C)NC(C)=O,Activity [4]: inactive
2,CCOC(=O)[C@H](Cc1ccccc1)OC(=O)N(C)NC(=O)[C@@H]1CCCN1C(=O)[C@H](C)NC(=O)[C@H](C)NC(C)=O,–
–,CCOC(=O)[C@H](C)OC(=O)N(C)NC(=O)[C@H](C)NC(C)=O,inhibition [1]: inactive
33,CCOC(=O)[C@H](C)OC(=O)[C@H](C)OC(=O)[C@@H]1CCCN1C(=O)[C@H](C)NC(=O)[C@H](C)NC(C)=O (Ac-AAP[Lac][Lac]-OEt),–
